Activity calls are given as the source filed them. No cut-off for these calls is given here.
How the values were obtained:
[1] = target: T1, ALK tyrosine kinase receptor (Homo sapiens, UniProt Q9UM73)
[2] = target: ALK tyrosine kinase receptor (Homo sapiens, UniProt Q9UM73, G1202R)
NCI-H3122 [3] = test: cells; conditions: Homo sapiens, NCI-H3122, 72 h
Description: Antiproliferative activity against human NCI-H3122 cells after 72 hrs by SRB or CCK8 assay

BaF3 [4] = test: cells; conditions: Mus musculus, BaF3, 72 h
Description: Antiproliferative activity against mouse BAF3 cells harboring EML4-ALK after 72 hrs by SRB or CCK8 assay

BaF3 [5] = test: cells; conditions: Mus musculus, BaF3, 72 h; remark: listed apart in the source
KARPAS-299 = test: cells; conditions: Homo sapiens, KARPAS-299, 72 h
Description: Antiproliferative activity against human KARPAS299 cells harboring NPM-ALK after 72 hrs by SRB or CCK8 assay

BaF3 [6] = test: cells; conditions: Mus musculus, BaF3, 72 h; remark: listed apart in the source
Description: Antiproliferative activity against mouse BAF3 cells harboring CD74-ROS1 after 72 hrs by SRB or CCK8 assay

SU-DHL-1 [7] = test: cells; conditions: Homo sapiens, SU-DHL-1, 72 h
Description: Antiproliferative activity against human SU-DHL1 cells harboring NPM-ALK after 72 hrs by SRB or CCK8 assay

BaF3 [8] = test: cells; conditions: Mus musculus, BaF3, 72 h; remark: listed apart in the source
Description: Antiproliferative activity against IL3-stimulated mouse BAF3 cells after 72 hrs by SRB or CCK8 assay

HCC78 = test: cells; conditions: Homo sapiens, HCC78, 72 h
Description: Antiproliferative activity against human HCC78 cells harboring SLC34A2-ROS1 after 72 hrs by SRB or CCK8 assay

BaF3 [9] = test: cells; conditions: Mus musculus, BaF3, 72 h; remark: listed apart in the source
Description: Antiproliferative activity against mouse BAF3 cells harboring CD74-ROS1 G2032R mutant after 72 hrs by SRB or CCK8 assay

BaF3 [10] = test: cells; conditions: Mus musculus, BaF3, 72 h; remark: listed apart in the source
[11] = target: T1, ALK tyrosine kinase receptor; conditions: 20 to 200 nM
Description: Inhibition of ALK in human SU-DHL1 cells assessed as reduction in STAT3 phosphorylation at Y705 residue at 20 to 200 nM after 1 hr by Western blot analysis

[12] = target: T1, ALK tyrosine kinase receptor; conditions: NCI-H3122, 20 to 200 nM
Description: Inhibition of ALK phosphorylation at Y1278 residue in human NCI-H3122 cells at 20 to 200 nM after 1 hr by Western blot analysis

[13] = target: T1, ALK tyrosine kinase receptor; conditions: 20 to 200 nM; remark: listed apart in the source
Description: Inhibition of ALK phosphorylation at Y1278 residue in human SU-DHL1 cells at 20 to 200 nM after 1 hr by Western blot analysis

[14] = target: T1, ALK tyrosine kinase receptor; conditions: NCI-H3122, 20 to 200 nM; remark: listed apart in the source
Description: Inhibition of ALK in human NCI-H3122 cells assessed as reduction in ERK phosphorylation at T202//Y204 residues at 20 to 200 nM after 1 hr by Western blot analysis

[15] = target: T1, ALK tyrosine kinase receptor; conditions: NCI-H3122, 20 to 200 nM; remark: listed apart in the source
Description: Inhibition of ALK in human NCI-H3122 cells assessed as reduction in STAT3 phosphorylation at Y705 residue at 20 to 200 nM after 1 hr by Western blot analysis

[16] = target: T1, ALK tyrosine kinase receptor; conditions: 20 to 200 nM; remark: listed apart in the source
Description: Inhibition of ALK in human SU-DHL1 cells assessed as reduction in ERK phosphorylation at T202//Y204 residues at 20 to 200 nM after 1 hr by Western blot analysis

[17] = target: T1, ALK tyrosine kinase receptor; conditions: NCI-H3122, 20 to 200 nM; remark: listed apart in the source
Description: Inhibition of ALK in human NCI-H3122 cells assessed as reduction in Akt phosphorylation at S473 residue at 20 to 200 nM after 1 hr by Western blot analysis

[18] = target: T1, ALK tyrosine kinase receptor; conditions: 20 to 200 nM; remark: listed apart in the source
Description: Inhibition of ALK in human SU-DHL1 cells assessed as reduction in Akt phosphorylation at S473 residue at 20 to 200 nM after 1 hr by Western blot analysis

[19] = target: ALK tyrosine kinase receptor (Homo sapiens, UniProt Q9UM73, R1275Q)
[20] = target: ALK tyrosine kinase receptor (Homo sapiens, UniProt Q9UM73, S1206Y)
[21] = target: ALK tyrosine kinase receptor (Homo sapiens, UniProt Q9UM73, L1152R)
SU-DHL-1 [22] = test: Induction of apoptosis in human SU-DHL1 cells at 20 to 80 nM after 48 hrs by Annexin V-FITC/propidium iodide staining based flow cytometry; type: functional, cell-based
[23] = target: ALK tyrosine kinase receptor (Homo sapiens, UniProt Q9UM73, T1151M)
NCI-H3122 [24] = test: Induction of apoptosis in human NCI-H3122 cells at 20 to 80 nM after 48 hrs by Annexin V-FITC/propidium iodide staining based flow cytometry; type: functional, cell-based

Row | Structure (SMILES) | IC50 [1] [µM] | IC50 [2] [µM] | IC50 (NCI-H3122 [3]) [µM] | other results
1 | COc1ccc(NC(=O)CNC(=O)c2cc(C(C)C)c(O)cc2O)cc1Nc1ncnc(Nc2ccccc2S(=O)(=O)C(C)C)n1 | 0.0013 |  | 0.064 | 
2 | CC(C)c1cc(C(=O)NCC(=O)Nc2cccc(Nc3ncc(Cl)c(Nc4ccccc4S(=O)(=O)C(C)C)n3)c2)c(O)cc1O | 0.0008 |  | 0.084 | 
3 | CC(C)Oc1ccc(NC(=O)CNC(=O)c2cc(C(C)C)c(O)cc2O)cc1Nc1nccc(Nc2ccccc2S(=O)(=O)C(C)C)n1 | 0.0042 |  | 0.123 | 
4 | CC(C)c1cc(C(=O)NCC(=O)Nc2cccc(Nc3ncc(Cl)c(Nc4cc(S(=O)(=O)C(C)C)nn4C)n3)c2)c(O)cc1O | 0.262 |  | > 1 | 
5 | COc1ccc(NC(=O)C(NC(=O)c2cc(C(C)C)c(O)cc2O)C(C)C)cc1Nc1ncc(Cl)c(Nc2ccccc2S(=O)(=O)C(C)C)n1 (stereo not given) | > 1 |  | > 1 | 
6 | COc1ccc(NC(=O)C(Cc2ccccc2)NC(=O)c2cc(C(C)C)c(O)cc2O)cc1Nc1ncc(Cl)c(Nc2ccccc2S(=O)(=O)C(C)C)n1 (stereo not given) | 0.0078 | 0.065 | 0.057 | 
7 | COc1ccc(NC(=O)C2(NC(=O)c3cc(C(C)C)c(O)cc3O)CC2)cc1Nc1ncc(Cl)c(Nc2ccccc2S(=O)(=O)C(C)C)n1 | 0.13 |  | 0.254 | 
8 | COc1ccc(Nc2ncc(Cl)c(Nc3ccccc3S(=O)(=O)C(C)C)n2)cc1NC(=O)CNC(=O)c1cc(C(C)C)c(O)cc1O | 0.0026 |  | > 1 | 
9 | Cc1cc(Nc2ncc(Cl)c(Nc3ccccc3S(=O)(=O)C(C)C)n2)c(OC(C)C)cc1C1CCNCC1 [CERITINIB] |  |  | 0.096 | IC50 (BaF3 [4]): 0.0107 µM; IC50 (BaF3 [5]): 0.726 µM; IC50 (KARPAS-299): 0.084 µM; inhibition [11]: Active; inhibition [12]: Active; IC50 (BaF3 [6]): 0.234 µM; IC50 (SU-DHL-1 [7]): 0.122 µM; IC50 (BaF3 [8]): > 1 µM; inhibition [13]: Active; inhibition [14]: Active; inhibition [15]: Active; IC50 (HCC78): > 1 µM; inhibition [16]: Active; IC50 (BaF3 [9]): > 1 µM; IC50 (BaF3 [10]): 0.0549 µM; inhibition [17]: Active; inhibition [18]: Active
10 | CC(C)Oc1ccc(NC(=O)CNC(=O)c2cc(C(C)C)c(O)cc2O)cc1Nc1ncc(Cl)c(Nc2ccccc2S(=O)(=O)C(C)C)n1 | 0.0033 |  | 0.069 | 
11 | COc1ccc(NC(=O)CNC(=O)c2cc(C(C)C)c(O)cc2O)cc1Nc1ncc(Cl)c(Nc2ccccc2P(C)(C)=O)n1 | 0.0015 | 0.0078 | 0.099 | 
12 | COc1cc(OC)c(C(C)C)cc1C(=O)NCC(=O)Nc1cccc(Nc2ncc(Cl)c(Nc3ccccc3S(=O)(=O)C(C)C)n2)c1 | > 1 |  | > 1 | 

Compounds with a lower IC50 (NCI-H3122 [3]), results first:

Row | IC50 [1] [µM] | IC50 [2] [µM] | IC50 (NCI-H3122 [3]) [µM] | Structure (SMILES) | other results
13 | 0.0014 | 0.0061 | 0.0091 | COc1ccc(NC(=O)CNC(=O)c2ccc(O)c(C(C)C)c2)cc1Nc1ncc(Cl)c(Nc2ccccc2S(=O)(=O)C(C)C)n1 | 
14 | 0.0007 |  | 0.0068 | COc1ccc(NC(=O)C(C)NC(=O)c2cc(C(C)C)c(O)cc2O)cc1Nc1ncc(Cl)c(Nc2ccccc2S(=O)(=O)C(C)C)n1 (stereo not given) | 
15 | 0.0105 |  | 0.0137 | COc1ccc(NC(=O)CNC(=O)c2cc(C(C)C)c(OC)cc2O)cc1Nc1ncc(Cl)c(Nc2ccccc2S(=O)(=O)C(C)C)n1 | 
16 |  |  | 0.0078 | C[C@H]1Oc2cc(cnc2N)-c2c(nn(C)c2C#N)CN(C)C(=O)c2ccc(F)cc21 [LORLATINIB] | IC50 (BaF3 [4]): 0.0029 µM; IC50 (BaF3 [5]): 0.2 µM; IC50 (KARPAS-299): 0.003 µM; IC50 (BaF3 [6]): 0.0012 µM; IC50 (SU-DHL-1 [7]): 0.0049 µM; IC50 (BaF3 [8]): > 1 µM; IC50 (HCC78): 0.357 µM; IC50 (BaF3 [9]): 0.262 µM; IC50 (BaF3 [10]): 0.0424 µM
17 | 0.0007 | 0.0153 | 0.004 | COc1ccc(NC(=O)CNC(=O)c2cc(C(C)C)ccc2O)cc1Nc1ncc(Cl)c(Nc2ccccc2S(=O)(=O)C(C)C)n1 | 
18 | 0.001 | 0.0155 | 0.0072 | CC(C)c1cc(C(=O)NCC(=O)Nc2ccc(F)c(Nc3ncc(Cl)c(Nc4ccccc4S(=O)(=O)C(C)C)n3)c2)c(O)cc1O | 
19 | 0.048 |  | 0.0128 | COc1ccc(NC(=O)CNC(=O)c2cc(C(C)C)c(O)cc2OC)cc1Nc1ncc(Cl)c(Nc2ccccc2S(=O)(=O)C(C)C)n1 | 
20 | 0.0017 | 0.0018 | 0.0069 | COc1ccc(NC(=O)CNC(=O)c2cc(C(C)C)c(O)cc2O)cc1Nc1ncc(Cl)c(Nc2ccccc2S(=O)(=O)C(C)C)n1 | IC50 (BaF3 [4]): < 0.0015 µM; IC50 (BaF3 [5]): < 0.0015 µM; IC50 [19]: 0.0027 µM; IC50 (KARPAS-299): 0.0104 µM; IC50 (BaF3 [6]): 0.0002 µM; IC50 (SU-DHL-1 [7]): 0.0048 µM; IC50 [20]: 0.0051 µM; IC50 (BaF3 [8]): > 1 µM; IC50 [21]: 0.0106 µM; IC50 (HCC78): < 0.0015 µM; Activity (SU-DHL-1 [22]): Active; IC50 (BaF3 [9]): 0.0002 µM; IC50 (BaF3 [10]): < 0.0015 µM; IC50 [23]: 0.0022 µM; Activity (NCI-H3122 [24]): Active

— ChEMBL document CHEMBL4145454, “Discovery of 2,4-diarylaminopyrimidines bearing a resorcinol motif as novel ALK inhibitors to overcome the G1202R resistant mutation” (Eur J Med Chem, 2018)
